This assay concerns the target T1, human plasma protein factor Xa (Homo sapiens, UniProt P00742).
T1 construct: measure proteolytic activity of the enzyme (factor Xa); purchased Haematologic Technologies (Essex Junction, Vt.); host or cells: human plasma
As to the kind of experiment: Factor Xa IC50 determination (cleavage of chromogenic substrate S-2765). It is filed as biochemical. Particulars: fXa 1 nM, S-2765 100 μM, Tris buffered saline pH 7.4, room temperature. An excerpt:
This example illustrates methods for evaluating the compounds of the invention, along with results obtained for such assays. The in vitro and in vivo Factor Xa isoform activities of the inventive compounds can be determined by various procedures known in the art, such as a test for their ability to inhibit the activity of the Factor Xa isoform. […] The IC50 value is the concentration (in nM) of the compound required to provide 50% inhibition of Factor Xa isoform.
An in vitro assay for detecting and measuring inhibition activity against Factor Xa is as follows:
• The substrate S-2765 (Z-D-Arg-Gly-Arg-pNA.HCl) was obtained from Diapharma (West Chester, Ohio). Enzyme: • The human plasma protein factor Xa was purchased from Haematologic Technologies (Essex Junction, Vt.). Methods
All assays, which are performed in 96-well microtiter plates, measure proteolytic activity of the enzyme (factor Xa) by following cleavage of paranitroanilide substrate. The assay buffer used for proteolytic assays was Tris buffered saline (20 mM Tris, 150 mM NaCl, 5 mM CaCl2, 0.1% Bovine serum albumin (BSA), 5% Dimethly Sulfoxide (DMSO) pH 7.4). In a 96-well microtiter plate, inhibitor was serially diluted to give a range of concentrations from 0.01 nM to 10 μM (final). Duplicate sets of wells were assayed and control wells without inhibitor were included. Enzyme was added to each well,(fXa concentration=1nM), the plate was shaken for 5 seconds and then incubated for 5 minutes at room temperature. S2765 was added (100 μM final) and the plate was shaken for 5 seconds (final liquid volume in each well was 200 μl). The degree of substrate hydrolysis was measured at 405 nm on a Thermomax plate reader (Molecular Devices, Sunnyvale, Calif.) for 2 minutes. The initial velocities (mOD/min), for each range of inhibitor concentrations, were fitted to a four parameter equation using Softmax data analysis software. The parameter C, derived from the resulting curve-fit, corresponded to the concentration for half maximal inhibition (IC50).

Each structure is given as a SMILES string. A value given as a limit tells only on which side of the number the result lay.

T1 sequence (P00742 235-488 limits assumed): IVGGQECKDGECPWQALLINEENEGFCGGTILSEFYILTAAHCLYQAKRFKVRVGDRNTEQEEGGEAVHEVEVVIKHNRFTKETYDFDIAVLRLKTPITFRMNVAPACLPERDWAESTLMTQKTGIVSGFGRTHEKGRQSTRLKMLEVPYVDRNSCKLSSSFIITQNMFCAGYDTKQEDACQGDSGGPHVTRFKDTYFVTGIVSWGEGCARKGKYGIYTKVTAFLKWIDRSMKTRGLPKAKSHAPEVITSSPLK
T1 sequence (P00742 41-179 partner limits assumed): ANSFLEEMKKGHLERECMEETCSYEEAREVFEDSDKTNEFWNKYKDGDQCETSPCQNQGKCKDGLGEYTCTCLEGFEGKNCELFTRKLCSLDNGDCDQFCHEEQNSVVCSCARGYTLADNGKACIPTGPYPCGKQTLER

For the compound `O=C(Nc1ccc(Cl)cc1)N[C@@H](C(=O)N1CCC(n2ccccc2=O)CC1)c1ccccc1` [Example 143, (2R) 4-(2-pyridon-1-yl)piperidin-1-yl-2-phenyl-2-(4-chlorophenylaminocarbonylamino)-acetamide], the concentration for half-maximal inhibition (IC50) is ≤ 100 nM. Consider `COc1ccccc1C(NC(=O)Nc1ccc(Cl)cc1)C(=O)Nc1ccc(C(=N)N2CCCC2)cc1` (centres unmarked) [Example 113], for which the 50% inhibitory concentration (IC50) is ≤ 100 nM. On to `CC#CCC(NC(=O)Nc1ccc(Cl)cc1)C(=O)Nc1ccc(C2=NCCN2C)cc1` (centres unmarked) [Example 130, N-[4-(1-methyl-4,5-dihydro-1H-imidazol-2-yl)phenyl]-2-(but-2-yn-1-yl)-2-(4-chlorophenylaminocarbonylamino)-acetamide], for which the 50% inhibitory concentration (IC50) was ≤ 100 nM.

Regarding `CN1CCN=C1c1ccc(NC(=O)C(CC(=O)N2CCCCC2)NC(=O)Nc2ccc(Cl)cc2)cc1` (centres unmarked) [Example 64, N-[4-(1-methyl-4,5-dihydro-1H-imidazol-2-yl)phenyl]-2-(piperidin-1-ylcarbonylmethyl)-2-(4-chlorophenylaminocarbonylamino)-acetamide], the 50% inhibitory concentration (IC50) is ≥ 500 nM. The figure for `CNC(=N)c1ccc(NC(=O)C(NC(=O)Nc2ccc(Cl)cc2)c2ccccc2)cc1` (centres unmarked) [Example 25, N-[4-(methylaminoimino)phenyl]-2-phenyl-2-(4-chlorophenylamino-carbonylamino)-acetamide] is ≤ 100 nM; for `CN1CCN=C1c1ccc(NC(=O)C(NC(=O)Nc2ccc(Cl)cc2)c2ccccc2Oc2ccccc2)cc1` (centres unmarked) [Example 124, N-[4-(1-methyl-4,5-dihydro-1H-imidazol-2-yl)phenyl]-2-(2-phenoxyphenyl)-2-(4-chlorophenylaminocarbonylamino)-acetamide] it is ≤ 100 nM; for `N=C(c1ccc(NC(=O)C(NC(=O)Nc2ccc(Cl)cc2)c2ccccc2F)cc1)N1CCCC1` (centres unmarked) [Example 41] it is ≤ 100 nM.

The compound `O=C(Nc1ccc(Cl)cc1)NC(C(=O)Nc1ccc(-c2cc[n+]([O-])cc2)cc1)c1ccccc1Br` (centres unmarked) [Example 78, N-[4-(N-oxo-pyridin-4-yl)phenyl]-2-(2-bromophenyl)-2-(4-chlorophenylaminocarbonylamino)-acetamide] gave a concentration for half-maximal inhibition (IC50) of 100 to 500 nM. Take `CN1CCN=C1c1ccc(NC(=O)C(Cc2cn(C)c3ccccc23)NC(=O)Nc2ccc(Cl)cc2)cc1` (centres unmarked) [Example 8, N-[4-(1-methyl-4,5-dihydro-1H-imidazol-2-yl)phenyl]-2-(1-methyl-indol-3-ylmethyl)-2-(4-chlorophenylaminocarbonylamino)-acetamide]: the IC50 is ≤ 100 nM. For `N=C(c1ccc(NC(=O)C(NC(=O)Nc2ccc(Br)cc2)c2ccccc2F)cc1)N1CCCCC1` (centres unmarked) [Example 45, N-[4-(piperidin-1-ylimino)phenyl]-2-(2-fluorophenyl)-2-(4-bromophenylaminocarbonylamino)-acetamide], the IC50 was ≤ 100 nM. As for `CCN(C)C(=N)c1ccc(NC(=O)C(NC(=O)Nc2ccc(Cl)cc2)c2ccccc2)cc1` (centres unmarked) [Example 24, N-[4-(N-methyl-N-ethylaminoimino)phenyl]-2-phenyl-2-(4-chlorophenylaminocarbonylamino)-acetamide], the IC50 was ≤ 100 nM.

`N=C(c1ccc(NC(=O)C(NC(=O)Nc2ccc(Br)cc2)c2ccccc2F)cc1)N1CCCC1` (centres unmarked) [Example 44]: the IC50 was ≤ 100 nM. For `CN1CCN=C1c1ccc(NC(=O)C(NC(=O)Nc2ccc(Cl)cc2)c2ccccc2I)cc1` (centres unmarked) [Example 114, N-[4-(1-methyl-4,5-dihydro-1H-imidazol-2-yl)phenyl]-2-(2-iodophenyl)-2-(4-chlorophenylaminocarbonylamino)-acetamide], the half-maximal inhibitory concentration (IC50) is ≤ 100 nM. With `CN1CCN=C1c1ccc(NC(=O)C(NC(=O)Nc2ccc(Cl)cc2)c2ccccc2SC(F)(F)F)cc1` (centres unmarked) [Example 122, N-[4-(1-methyl-4,5-dihydro-1H-imidazol-2-yl)phenyl]-2-(2-trifluoromethylthiophenyl)-2-(4-chlorophenylaminocarbonylamino)-acetamide], the IC50 was ≤ 100 nM.

Regarding `C=CCN(C)C(=N)c1ccc(NC(=O)C(NC(=O)Nc2ccc(Cl)cc2)c2ccccc2)c(F)c1` (centres unmarked) [Example 35, N-[4-(N-methyl-N-allylaminoimino)-2-fluorophenyl]-2-phenyl-2-(4-chlorophenylaminocarbonylamino)-acetamide], the IC50 is ≤ 100 nM. Regarding `CN1CCN=C1c1ccc(NC(=O)CNC(=O)Nc2ccc(Cl)cc2)cc1` [Example 1, N-[4-(1-methyl-4,5-dihydro-1H-imidazol-2-yl)phenyl]-2-(4-chlorophenylaminocarbonylamino)-acetamide], the IC50 is ≤ 100 nM. As for `COc1ccccc1C(NC(=O)Nc1ccc(Cl)cc1)C(=O)N1CCN(C2CCN(C)CC2)CC1` (centres unmarked) [Example 109, N-[4-(1-methylpiperidin-4-yl)piperazin-1-yl]-2-(2-methoxyphenyl)-2-(4-chlorophenylaminocarbonylamino)-acetamide], the IC50 was ≤ 100 nM. `COc1ccccc1C(NC(=O)Nc1ccc(Cl)cc1)C(=O)N1CCC(N2CCOCC2=O)CC1` (centres unmarked) [Example 148, 4-(3-morpholinon-4-yl)piperidin-1-yl-2-(2-methoxyphenyl)-2-(4-chlorophenylaminocarbonylamino)-acetamide]: the IC50 was ≤ 100 nM.

As for `CN(C)NC(=N)c1ccc(NC(=O)C(NC(=O)Nc2ccc(Cl)cc2)c2ccccc2F)c(F)c1` (centres unmarked) [Example 48, N-[4-(2,2-dimethylhydrazinoimino)-2-fluorophenyl]-2-(2-fluorophenyl)-2-(4-chlorophenylaminocarbonylamino)-acetamide], the IC50 lay within 100 to 500 nM. Then `O=C(Nc1ccc(Cl)cc1)NC(C(=O)NCC1CCN(c2ccncc2)CC1)c1ccccc1Cl` (centres unmarked) [Example 105, N-[1-(pyridin-4-yl)piperidin-4-yl]methyl-2-(2-chlorophenyl)-2-(4-chlorophenylaminocarbonylamino)-acetamide], with ≤ 100 nM; and `CN1CCC(N2CCN(C(=O)C(NC(=O)Nc3ccc(Cl)cc3)c3ccccc3Cl)CC2)CC1` (centres unmarked) [Example 104, N-[4-(1-methylpiperidin-4-yl)piperazin-1-yl]-2-(2-chlorophenyl)-2-(4-chlorophenylaminocarbonylamino)-acetamide], with ≤ 100 nM.

As for `N=C(c1ccc(NC(=O)C(NC(=O)Nc2ccc(Cl)cc2)c2ccccc2I)cc1)N1CCCC1` (centres unmarked) [Example 117], the IC50 was ≤ 100 nM.

`CN1CCC(N2CCN(C(=O)C(NC(=O)Nc3ccc(Cl)cc3)c3ccccc3I)CC2)CC1` (centres unmarked) [Example 118]: the IC50 is ≤ 100 nM. Turning to `Cc1ccccc1C(NC(=O)Nc1ccc(Cl)cc1)C(=O)N1CCN(C2CCN(C)CC2)CC1` (centres unmarked) [Example 91], the IC50 was ≤ 100 nM.

`Cc1ccccc1C(NC(=O)Nc1ccc(Cl)cc1)C(=O)Nc1ccc(C(=O)N2CCSC2)cc1` (centres unmarked) [Example 97, N-[4-(thiazolidin-3-ylcarbonyl)phenyl]-2-(2-methylphenyl)-2-(4-chlorophenylaminocarbonylamino)-acetamide]: the IC50 was ≤ 100 nM. Turning to `CN1CCN=C1c1ccc(NC(=O)C(CC(=O)N2CCCCCC2)NC(=O)Nc2ccc(Cl)cc2)cc1` (centres unmarked) [Example 68, N-[4-(1-methyl-4,5-dihydro-1H-imidazol-2-yl)phenyl]-2-(homopiperidin-1-ylcarbonylmethyl)-2-(4-chlorophenylaminocarbonylamino)-acetamide], the IC50 was ≥ 500 nM.

Source of the values: patent US7678913B2, “Ureas as factor Xa inhibitors” (Portola Pharmaceuticals, Inc., priority 2004, dated 2010).
